Legend:
[1] = Dynamic vapor sorption (DVS) of 17-HPC powder; assay type: physicochemical; conditions: FIG. 18; increasing percent relative humidity
Procedure: Dynamic vapor sorption (DVS) is a gravimetric technique that measures how quickly and how much of a solvent is absorbed by a sample, such as a dry powder absorbing water. DVS accomplishes this by varying the vapor concentration surrounding the sample and measuring the change in mass which this produces.
Analysis of 17-HPC dry powder (obtained after particle size reduction and spray drying or SD) was performed. FIG. 18 depicts exemplary results from a dynamic vapor sorption (DVS) analysis of a dry powder obtained after a spray-drying (SD) process. One particular batch (PGC2011-020PD) was selected to be analyzed by DVS. […] There was no substantive change in adsorption or desorption even with conditions of increasing percent relative humidity. Referring to FIG. 19, exemplary results are shown of XRPD analysis of a 17-HPC dry powder obtained after particle size reduction and a spray-drying (SD) process. One particular batch (PGC2011-020PD) was selected to be analyzed by XRPD.

[2] = API particle size distribution (Dv(10), Dv(50), Dv(90), Span); assay type: physicochemical
From the text: In determining and characterizing particle size, e.g., particle size of an API (active pharmaceutical ingredient), the particle size parameters Dv(10), Dv(50) and Dv(90) may be used. Particle size measurements are preferably expressed in terms of Dv(10), Dv(50), and Dv(90), wherein Dv(10) refers to the particle size below which 10% of the volume of material exists; Dv(50) refers to the particle size below which 50% of the volume of material exists; and Dv(90) refers to the particle size below which 90% of the volume of material exists.
Referring to Table 5, experiments were performed with a suspension comprising the active pharmaceutical ingredient (the API), i.e., 17-HPC was the API in these experiments, wherein 17-HPC was present at approximately five percent (5%) w/w in water; and the suspension also comprised the surfactant Tween 80 at approximately 15% in these experiments (processing conditions conducted at Pressure=90 bar). […] Particle size measurements are expressed in terms of Dv(10), Dv(50), and Dv(90), wherein Dv(10) refers to the particle size below which 10% of the volume of material exists; Dv(50) refers to the particle size below which 50% of the volume of material exists; and Dv(90) refers to the particle size below which 90% of the volume of material exists). […]
Exemplary particle size reduction experiments, and characterization of API (i.e., 17-HPC) particle size distribution, using a suspension prepared without a surfactant. Referring to Table 7, particle size reduction of 17-HPC was observed without using any surfactant. Experiments were performed with a suspension comprising the active pharmaceutical ingredient (the API), i.e., 17-HPC in these experiments, in water and without a surfactant. FIG. 16 depicts an exemplary API particle size distribution profile (17-HPC is the active ingredient) after a spray-drying (SD) process. Referring again to FIG. 16, and also to Table 7, an exemplary 17-HPC particle size distribution profile was obtained after approximately 10 to 55 cycles of milling. API particle size was measured after spray drying (SD). Particle size measurements are expressed in terms of Dv(10), Dv(50), and Dv(90), wherein Dv(10) refers to the particle size below which 10% of the volume of material exists; Dv(50) refers to the particle size below which 50% of the volume of material exists; and Dv(90) refers to the particle size below which 90% of the volume of material exists).

[3] = Table 7, powders after spray drying, bulk material for comparison

Compound: CCCCCC(=O)O[C@]1(C(C)=O)CC[C@H]2[C@@H]3CCC4=CC(=O)CC[C@]4(C)[C@H]3CC[C@@]21C [Bulk material]
- water uptake in DVS (percent change in weight vs RH %) [1]: neither the obtained powders nor the bulk material gained any measurable quantity of water
- Particle Size Dv(10) ([2]; Table 5, bulk material): 6.345 μm
- Particle Size Dv(50) ([2]; Table 5, bulk material): 56.762 μm
- Particle Size Dv(90) ([2]; Table 5, bulk material): 307.607 μm
- Particle Size Span ([2]; Table 5, bulk material): 5.307
- API particle size after SD (powders) Dv(10) [2, 3]: 2.398 μm
- API particle size after SD (powders) Dv(50) [2, 3]: 23.610 μm
- API particle size after SD (powders) Dv(90) [2, 3]: 98.799 μm
- API particle size after SD (powders) Span [2, 3]: 4.083
